Test results as given in patent US20230111310A1, “CARBOXYLIC ACID DERIVATIVE-SUBSTITUTED IMINO ARYL COMPOUND, PREPARATION METHOD THEREFOR, HERBICIDAL COMPOSITION AND USE THEREOF” (Qingdao Kingagroot Chemical Compound Co., Ltd., priority 2020, published 2023).

Key:
Test in all cases: Weeding effect in post-emergence stage
Assay type in all cases: in vivo
Conditions in all cases: fresh weight control rate level
Abutilon theophrasti = test system: Abutilon theophrasti
Summary of the method: (§1)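 Pot-grown weeds were sprayed at the 2-3 leaf stage, 2 weeks after sowing, with compound in acetone plus Tween 80 and 1.5 liter/ha methyl oleate emulsifiable concentrate, diluted in water. Doses were 500, 250, 125, 60, 30, 15, 7.5 g/ha. Growth control was scored after 3 weeks in greenhouse; mean of three replicates.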

Alopecurus japonicus = test system: Alopecurus japonicus
Summary of the method: as §1

Digitaria sanguinalis = test system: Digitaria sanguinalis
Summary of the method: as §1

Eleusine indica = test system: Eleusine indica
Summary of the method: as §1

Setaria viridis = test system: Setaria viridis
Summary of the method: as §1

Echinochloa crusgalli = test system: Echinochloa crusgalli
Summary of the method: as §1

Compound	Weeding effect in post-emergence stage, Abutilon theophrasti (level) (Abutilon theophrasti; Dose 15 g/ha)	Weeding effect in post-emergence stage, Alopecurus japonicus (level) (Alopecurus japonicus; Dose 15 g/ha)	Weeding effect in post-emergence stage, Digitaria sanguinalis (level) (Digitaria sanguinalis; Dose 15 g/ha)	Weeding effect in post-emergence stage, Eleusine indica (level) (Eleusine indica; Dose 15 g/ha)	Weeding effect in post-emergence stage, Setaria viridis (level) (Setaria viridis; Dose 15 g/ha)	Weeding effect in post-emergence stage, Echinochloa crusgalli (level) (Echinochloa crusgalli; Dose 15 g/ha)	Weeding effect in post-emergence stage, Abutilon theophrasti (level) (Abutilon theophrasti; Dose 30 g/ha)	Weeding effect in post-emergence stage, Alopecurus japonicus (level) (Alopecurus japonicus; Dose 30 g/ha)	Weeding effect in post-emergence stage, Digitaria sanguinalis (level) (Digitaria sanguinalis; Dose 30 g/ha)	Weeding effect in post-emergence stage, Eleusine indica (level) (Eleusine indica; Dose 30 g/ha)	Weeding effect in post-emergence stage, Setaria viridis (level) (Setaria viridis; Dose 30 g/ha)	Weeding effect in post-emergence stage, Echinochloa crusgalli (level) (Echinochloa crusgalli; Dose 30 g/ha)
CC(O/N=C/c1cc(-n2c(=O)cc(C(F)(F)F)n(C)c2=O)c(F)cc1Cl)C(=O)OCCC1OCCO1 (stereo not drawn) [Compound 498]	5 (Level 5: growth control rate is above 85%)	5 (Level 5: growth control rate is above 85%)	5 (Level 5: growth control rate is above 85%)	5 (Level 5: growth control rate is above 85%)	5 (Level 5: growth control rate is above 85%)	5 (Level 5: growth control rate is above 85%)	–	–	–	–	–	–
CC(O/N=C/c1cc(-n2c(=O)cc(C(F)(F)F)n(C)c2=O)c(F)cc1Cl)C(N)=O (stereo not drawn) [Compound 499]	5 (Level 5: growth control rate is above 85%)	5 (Level 5: growth control rate is above 85%)	5 (Level 5: growth control rate is above 85%)	5 (Level 5: growth control rate is above 85%)	5 (Level 5: growth control rate is above 85%)	5 (Level 5: growth control rate is above 85%)	–	–	–	–	–	–
CC(Cl)=CCOC(=O)C(C)ON=Cc1cc(-n2c(=O)cc(C(F)(F)F)n(C)c2=O)c(F)cc1Cl (stereo not drawn) [Compound 500]	5 (Level 5: growth control rate is above 85%)	5 (Level 5: growth control rate is above 85%)	5 (Level 5: growth control rate is above 85%)	5 (Level 5: growth control rate is above 85%)	5 (Level 5: growth control rate is above 85%)	5 (Level 5: growth control rate is above 85%)	–	–	–	–	–	–
C=C(Cl)COC(=O)C(C)O/N=C/c1cc(-n2c(=O)cc(C(F)(F)F)n(C)c2=O)c(F)cc1Cl (stereo not drawn) [Compound 501]	5 (Level 5: growth control rate is above 85%)	5 (Level 5: growth control rate is above 85%)	5 (Level 5: growth control rate is above 85%)	5 (Level 5: growth control rate is above 85%)	5 (Level 5: growth control rate is above 85%)	5 (Level 5: growth control rate is above 85%)	–	–	–	–	–	–
CCN(CC)C(=O)C(C)ON=Cc1cc(-n2c(=O)cc(C(F)(F)F)n(C)c2=O)c(F)cc1Cl (stereo not drawn) [Compound 502]	5 (Level 5: growth control rate is above 85%)	5 (Level 5: growth control rate is above 85%)	5 (Level 5: growth control rate is above 85%)	5 (Level 5: growth control rate is above 85%)	5 (Level 5: growth control rate is above 85%)	5 (Level 5: growth control rate is above 85%)	–	–	–	–	–	–
CC(ON=Cc1cc(-n2c(=O)cc(C(F)(F)F)n(C)c2=O)c(F)cc1Cl)C(=O)NS(=O)(=O)CCl (stereo not drawn) [Compound 503]	5 (Level 5: growth control rate is above 85%)	5 (Level 5: growth control rate is above 85%)	5 (Level 5: growth control rate is above 85%)	5 (Level 5: growth control rate is above 85%)	5 (Level 5: growth control rate is above 85%)	5 (Level 5: growth control rate is above 85%)	–	–	–	–	–	–
COC(=O)C(C)O/N=C/c1nc(-n2c(=O)cc(C(F)(F)F)n(C)c2=O)c(F)cc1Cl (stereo not drawn) [Compound 504]	5 (Level 5: growth control rate is above 85%)	5 (Level 5: growth control rate is above 85%)	5 (Level 5: growth control rate is above 85%)	5 (Level 5: growth control rate is above 85%)	5 (Level 5: growth control rate is above 85%)	5 (Level 5: growth control rate is above 85%)	–	–	–	–	–	–
COC(=O)C(C)ON=Cc1nc(-n2c(=O)n(C)c(=S)n(C)c2=O)c(F)cc1Cl (stereo not drawn) [Compound 511]	5 (Level 5: growth control rate is above 85%)	5 (Level 5: growth control rate is above 85%)	5 (Level 5: growth control rate is above 85%)	5 (Level 5: growth control rate is above 85%)	5 (Level 5: growth control rate is above 85%)	5 (Level 5: growth control rate is above 85%)	–	–	–	–	–	–
COC(=O)C(C)SN=Cc1cc(-n2c(=O)n(C)c(=S)n(C)c2=O)c(F)cc1Cl (stereo not drawn) [Compound 692]	5 (Level 5: growth control rate is above 85%)	5 (Level 5: growth control rate is above 85%)	5 (Level 5: growth control rate is above 85%)	5 (Level 5: growth control rate is above 85%)	5 (Level 5: growth control rate is above 85%)	5 (Level 5: growth control rate is above 85%)	–	–	–	–	–	–
COC(=O)C(C)SN=Cc1cc(-n2c(=O)cc(C(F)(F)F)n(C)c2=O)c(F)cc1Cl (stereo not drawn) [Compound 730]	5 (Level 5: growth control rate is above 85%)	5 (Level 5: growth control rate is above 85%)	5 (Level 5: growth control rate is above 85%)	5 (Level 5: growth control rate is above 85%)	5 (Level 5: growth control rate is above 85%)	5 (Level 5: growth control rate is above 85%)	–	–	–	–	–	–
COC(=O)C(C)NN=Cc1cc(-n2c(=O)n(C)c(=S)n(C)c2=O)c(F)cc1Cl (stereo not drawn) [Compound 881]	–	–	–	–	–	–	5 (Level 5: growth control rate is above 85%)	5 (Level 5: growth control rate is above 85%)	5 (Level 5: growth control rate is above 85%)	5 (Level 5: growth control rate is above 85%)	5 (Level 5: growth control rate is above 85%)	5 (Level 5: growth control rate is above 85%)
CC(C)OC(=O)C(C)N(C)N=Cc1cc(-n2c(=O)n(C)c(=S)n(C)c2=O)c(F)cc1Cl (stereo not drawn) [Compound 885]	–	–	–	–	–	–	5 (Level 5: growth control rate is above 85%)	5 (Level 5: growth control rate is above 85%)	5 (Level 5: growth control rate is above 85%)	5 (Level 5: growth control rate is above 85%)	5 (Level 5: growth control rate is above 85%)	5 (Level 5: growth control rate is above 85%)
COC(=O)C(C)NN=Cc1cc(-n2c(=O)cc(C(F)(F)F)n(C)c2=O)c(F)cc1Cl (stereo not drawn) [Compound 919]	–	–	–	–	–	–	5 (Level 5: growth control rate is above 85%)	5 (Level 5: growth control rate is above 85%)	5 (Level 5: growth control rate is above 85%)	5 (Level 5: growth control rate is above 85%)	5 (Level 5: growth control rate is above 85%)	5 (Level 5: growth control rate is above 85%)
CO/N=C/c1cc(-n2c(=O)n(C)c(=S)n(C)c2=O)c(F)cc1Cl [Control compound A, reference compound]	3 (Level 3: growth control rate is greater than or equal to 40% and less than 60%)	0 (Level 0: growth control rate is less than 5%)	1 (Level 1: growth control rate is greater than or equal to 5% and less than 20%)	1 (Level 1: growth control rate is greater than or equal to 5% and less than 20%)	1 (Level 1: growth control rate is greater than or equal to 5% and less than 20%)	0 (Level 0: growth control rate is less than 5%)	–	–	–	–	–	–
